# Results reported in US9884868B2, “TGF-beta inhibitors” (Rigel Pharmaceuticals, Inc., priority 2015, dated 2018).
# Where two headings read alike, the source gives them in different places.
# Assays:
# HIS-TGF-βR1 T204D = HIS-TGF-βR1 T204D (Homo sapiens (Human), UniProt P36897, T204D); test: HTRF probe displacement assay with HIS-TGF-βR1 T204D
# HIS-TGF-βR2 WT = HIS-TGF-βR2 WT (Homo sapiens (Human), UniProt P37173); test: HTRF probe displacement assay with HIS-TGF-βR2 WT
# [1] = read-out: TGFbr1 IC50, HTRF probe displacement, 1 nM HIS-TGF-βR1 T204D, 1 hour at room temperature
# [2] = read-out: TGFBr2 IC50, HTRF probe displacement, 1 nM HIS-TGF-βR2 WT, 1 hour at room temperature
# HIS-TGF-βR2 WT, sequence (P37173 23-567): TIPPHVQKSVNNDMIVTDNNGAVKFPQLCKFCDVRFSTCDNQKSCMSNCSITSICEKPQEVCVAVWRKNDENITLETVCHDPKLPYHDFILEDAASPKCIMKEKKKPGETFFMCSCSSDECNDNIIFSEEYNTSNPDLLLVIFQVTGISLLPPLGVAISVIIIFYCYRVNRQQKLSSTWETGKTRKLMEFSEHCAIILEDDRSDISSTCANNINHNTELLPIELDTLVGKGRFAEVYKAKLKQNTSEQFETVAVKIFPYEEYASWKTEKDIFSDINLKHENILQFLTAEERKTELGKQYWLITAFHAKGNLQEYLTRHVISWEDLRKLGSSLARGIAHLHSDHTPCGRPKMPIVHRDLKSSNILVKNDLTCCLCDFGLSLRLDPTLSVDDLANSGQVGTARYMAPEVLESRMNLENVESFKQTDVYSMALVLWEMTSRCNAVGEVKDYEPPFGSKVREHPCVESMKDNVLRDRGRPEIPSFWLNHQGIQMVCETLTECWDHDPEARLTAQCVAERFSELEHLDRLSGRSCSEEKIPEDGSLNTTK
# HIS-TGF-βR1 T204D, sequence (P36897 34-503 T204D): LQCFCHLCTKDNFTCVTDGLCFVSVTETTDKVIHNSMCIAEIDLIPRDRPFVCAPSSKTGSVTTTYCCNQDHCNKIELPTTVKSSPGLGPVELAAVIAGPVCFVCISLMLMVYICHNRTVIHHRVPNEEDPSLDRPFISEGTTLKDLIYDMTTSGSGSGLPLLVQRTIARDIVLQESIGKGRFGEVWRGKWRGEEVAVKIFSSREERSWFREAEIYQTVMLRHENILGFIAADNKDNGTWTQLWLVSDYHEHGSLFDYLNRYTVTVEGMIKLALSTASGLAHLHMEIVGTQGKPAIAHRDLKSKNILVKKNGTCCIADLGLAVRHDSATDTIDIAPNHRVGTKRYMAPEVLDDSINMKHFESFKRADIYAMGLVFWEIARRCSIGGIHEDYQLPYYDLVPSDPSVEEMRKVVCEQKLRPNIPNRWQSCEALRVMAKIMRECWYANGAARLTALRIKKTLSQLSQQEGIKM
Compound,IC50 (HIS-TGF-βR1 T204D; [1]) [nM],IC50 (HIS-TGF-βR2 WT; [2]) [nM],IC50 (HIS-TGF-βR1 T204D) [nM],IC50 (HIS-TGF-βR2 WT) [nM]
"CC(C)(C)NC(=O)N1CC(n2cnc(-c3ccc(F)cc3)c2-c2ccc3ncc(C#N)n3n2)C1 [Example 193′, N-(tert-butyl)-3-(5-(3-cyanoimidazo[1,2-b]pyridazin-6-yl)-4-(4-fluorophenyl)-1H-imidazol-1-yl)azetidine-1-carboxamide]",227,> 15000,,
"CN(C)CCCn1cnc(-c2ccc(F)cc2)c1-c1ccc2ncc(C(N)=O)n2c1 [163′, 6-(1-(3-(dimethylamino)propyl)-4-(4-fluorophenyl)-1H-imidazol-5-yl)imidazo[1,2-a]pyridine-3-carboxamide]",31.9,> 15000,,
"Fc1ccc(-c2ncn(CC(F)F)c2-c2ccc3ncc(N4CCOCC4)n3c2)cc1 [Example 289′, 4-(6-(1-(2,2-difluoroethyl)-4-(4-fluorophenyl)-1H-imidazol-5-yl)imidazo[1,2-a]pyridin-3-yl)morpholine]",376,> 15000,,
"N#Cc1cnc2ccc(-c3c(-c4ccc(F)c(Cl)c4)ncn3CCN3CCOCC3)cn12 [95′, 6-(4-(3-chloro-4-fluorophenyl)-1-(2-morpholinoethyl)-1H-imidazol-5-yl)imidazo[1,2-c]pyridine-3-carbonitrile]",76.8,> 15000,,
"N#Cc1cnc2ccc(-c3c(-c4cccc(C(F)(F)F)c4)ncn3CC(F)F)nn12 [243′, 6-(1-(2,2-difluoroethyl)-4-(3-(trifluoromethyl)phenyl)-1H-imidazol-5-yl)imidazo[1,2-b]pyridazine-3-carbonitrile]",1.8,> 15000,,
"CC(=O)N1CC(n2cnc(-c3ccc(F)cc3)c2-c2ccc3ncc(C#N)n3n2)C1 [Example 191′, 6-(1-(1-acetylazetidin-3-yl)-4-(4-fluorophenyl)-1H-imidazol-5-yl)imidazo[1,2-b]pyridazine-3-carbonitrile]",72.7,> 15000,,
"CCOC(=O)c1cnc2ccc(-c3c(-c4ccc(F)cc4)ncn3CC(F)F)cn12 [274C′, ethyl 6-(1-(2,2-difluoroethyl)-4-(4-fluorophenyl)-1H-imidazol-5-yl)imidazo[1,2-a]pyridine-3-carboxylate]",7,> 15000,,
"O=C(NCc1cnc2ccc(-c3c(-c4ccc(F)cc4)ncn3CC(F)F)nn12)C1CC1 [Example 198′, N-((6-(1-(2,2-difluoroethyl)-4-(4-fluorophenyl)-1H-imidazol-5-yl)imidazo[1,2-b]pyridazin-3-yl)methyl)cyclopropanecarboxamide]",5.3,> 15000,,
"N#Cc1cnc2ccc(-c3c(-c4ccc(F)c(Cl)c4)ncn3CC(O)C(F)(F)F)nn12 (stereo not shown) [55′, 6-(4-(3-chloro-4-fluorophenyl)-1-(3,3,3-trifluoro-2-hydroxypropyl)-1H-imidazol-5-yl)imidazo[1,2-b]pyridazine-3-carbonitrile]",,,6.7,> 15000
"COC(=O)Nc1cnc2ccc(-c3c(-c4ccc(F)cc4)ncn3CC(F)F)nn12 [Example 211′, methyl (6-(1-(2,2-difluoroethyl)-4-(4-fluorophenyl)-1H-imidazol-5-yl)imidazo[1,2-b]pyridazin-3-yl)carbamate]",4.5,> 15000,,
"CS(=O)(=O)Nc1cccc(-c2ncn(CC(F)F)c2-c2ccc3ncc(C#N)n3n2)c1 [252′, N-(3-(5-(3-cyanoimidazo[1,2-b]pyridazin-6-yl)-1-(2,2-difluoroethyl)-1H-imidazol-4-yl)phenyl)methanesulfonamide]",7.7,> 15000,,
"NC(=O)c1cnc2ccc(-c3c(-c4ccc(F)c(Cl)c4)ncn3C3CCOCC3)nn12 [144′, 6-(4-(3-chloro-4-fluorophenyl)-1-(tetrahydro-2H-pyran-4-yl)-1H-imidazol-5-yl)imidazo[1,2-b]pyridazine-3-carboxamide]",4.1,> 15000,,
"N#Cc1cnc2ccc(-c3c(-c4ccc(F)c(Cl)c4)ncn3C3CC(F)(F)C3)cn12 [99′, 6-(4-(3-chloro-4-fluorophenyl)-1-(3,3-difluorocyclobutyl)-1H-imidazol-5-yl)imidazo[1,2-a]pyridine-3-carbonitrile]",65.7,> 15000,,
"COC(=O)Nc1cnc2ccc(-c3c(-c4ccc(F)cc4)ncn3CC(F)F)cn12 [Example 284′, methyl (6-(1-(2,2-difluoroethyl)-4-(4-fluorophenyl)-1H-imidazol-5-yl)imidazo[1,2-a]pyridin-3-yl)carbamate]",426,> 15000,,
"CC(C)(O)CCn1cnc(-c2ccc(F)cc2)c1-c1ccc2ncc(C(N)=O)n2n1 [131′, 6-(4-(4-fluorophenyl)-1-(3-hydroxy-3-methylbutyl)-1H-imidazol-5-yl)imidazo[1,2-b]pyridazine-3-carboxamide]",28.1,> 15000,,
"NC(=O)c1cnc2ccc(-c3c(-c4cc(Cl)c(F)cc4F)ncn3CC(F)F)cn12 [235′, 6-(4-(5-chloro-2,4-difluorophenyl)-1-(2,2-difluoroethyl)-1H-imidazol-5-yl)imidazo[1,2-a]pyridine-3-carboxamide]",1,> 15000,,
"N#Cc1cnc2ccc(-c3c(-c4ccc(F)cc4)ncn3[C@]34CC5CC(C[C@](O)(C5)C3)C4)nn12 (single isomer, unassigned) [269′]",1200,> 15000,,
"OC(c1cnc2ccc(-c3c(-c4ccc(F)cc4)ncn3CC(F)F)nn12)C(F)(F)F (stereo not shown) [Example 213′, 1-(6-(1-(2,2-difluoroethyl)-4-(4-fluorophenyl)-1H-imidazol-5-yl)imidazo[1,2-b]pyridazin-3-yl)-2,2,2-trifluoroethanol]",2.3,> 15000,,
"CC(C)(C)OC(=O)N1CC(n2cnc(-c3ccc(F)cc3)c2-c2ccc3ncc(C(N)=O)n3n2)C1 [195A′, tert-butyl 3-(5-(3-carbamoylimidazo[1,2-b]pyridazin-6-yl)-4-(4-fluorophenyl)-1H-imidazol-1-yl)azetidine-1-carboxylate]",244,> 15000,,
"NC(=O)c1cnc2ccc(-c3c(-c4ccc(F)c(Cl)c4)ncn3C3CC(F)(F)C3)nn12 [118′, 6-(4-(3-chloro-4-fluorophenyl)-1-(3,3-difluorocyclobutyl)-1H-imidazol-5-yl)imidazo[1,2-b]pyridazine-3-carboxamide]",1.4,> 15000,,
"COC(=O)N1CC(n2cnc(-c3ccc(F)cc3)c2-c2ccc3ncc(C#N)n3n2)C1 [Example 190′, methyl 3-(5-(3-cyanoimidazo[1,2-b]pyridazin-6-yl)-4-(4-fluorophenyl)-1H-imidazol-1-yl)azetidine-1-carboxylate]",52.7,> 15000,,
"NC(=O)c1cnc2ccc(-c3c(-c4ccc(F)cc4)ncn3C3CCC(F)(F)CC3)nn12 [110′, 6-(1-(4,4-difluorocyclohexyl)-4-(4-fluorophenyl)-1H-imidazol-5-yl)imidazo[1,2-b]pyridazine-3-carboxamide]",20.5,> 15000,,
"N#Cc1cnc2ccc(-c3c(-c4ccc(F)cc4)ncn3[C@@H](CO)CC(F)(F)F)nn12 [28′, (R)-6-(4-(4-fluorophenyl)-1-(4,4,4-trifluoro-1-hydroxybutan-2-yl)-1H-imidazol-5-yl)imidazo[1,2-b]pyridazine-3-carbonitrile]",1,> 15000,,
